Test system: 966289-007-R4-J1-PDC complex spheroid viability
Assay: Anticancer human tumor 966289-007-R4-J1-PDC patient-derived pancreatic adenocarcinoma cell line growth inhibition [RAS]
Settings: for IC50: curve of first compound; for viability, T/C: stronger effect = lower value; active = viability on the fitted dose curve at most 10% of control; inactive = the rest
Method in brief: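 Multi-cell-type spheroids: tumor cells plus HUVEC endothelial cells and mesenchymal stem cells. RAS-pathway inhibitors were combined with targeted agents, each dosed in half-log steps down from clinical Cmax, or from 10 microM when Cmax was unknown.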

[1] = second compound 0.000949 µM, first compound 0.0316 µM
[2] = second compound 0.000949 µM, first compound 0.1 µM
[3] = second compound 0.003 µM, first compound 0.0316 µM
[4] = second compound 0.003 µM, first compound 0.1 µM
[5] = second compound 0.00949 µM, first compound 0.0316 µM
[6] = second compound 0.00949 µM, first compound 0.1 µM
[7] = second compound 0.03 µM, first compound 0.0316 µM
[8] = second compound 0.03 µM, first compound 0.1 µM
[9] = second compound 0.0949 µM, first compound 0.0316 µM
[10] = second compound 0.0949 µM, first compound 0.1 µM
[11] = second compound 0.3 µM, first compound 0.0316 µM
[12] = second compound 0.3 µM, first compound 0.1 µM
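Also: spheroids exposed to agents for one week before readout.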
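For viability, T/C in this document: percent viability relative to DMSO vehicle control wells as 100%.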

CC(C)n1nc(-c2ccc3oc(N)nc3c2)c2c(N)ncnc21 + CCn1c(-c2cc(N3CCN(C)CC3)cnc2C(C)OC)c2c3cc(ccc31)-c1csc(n1)CC(NC(=O)C1CC1C)C(=O)N1CCCC(N1)C(=O)OCC(C)(C)C2
32.5 nM: IC50 (second compound 0.003 µM)
30.7 nM: IC50 (second compound 0.00949 µM)
25.6 nM: IC50 (second compound 0.03 µM)
25.4 nM: IC50 (second compound 0.3 µM)
26.1 nM: IC50 (second compound 0.0949 µM)
inactive: viability, T/C (second compound 0.000949 µM, first compound 0.000316 µM) 89.3% | viability, T/C (second compound 0.000949 µM, first compound 0.001 µM) 116% | viability, T/C (second compound 0.000949 µM, first compound 0.00316 µM) 133% | viability, T/C (second compound 0.000949 µM, first compound 0.01 µM) 78.5% | viability, T/C [1] 50.5% | viability, T/C [2] 16.2% | viability, T/C (second compound 0.003 µM, first compound 0.000316 µM) 83.3% | viability, T/C (second compound 0.003 µM, first compound 0.001 µM) 128% | viability, T/C (second compound 0.003 µM, first compound 0.00316 µM) 93.6% | viability, T/C (second compound 0.003 µM, first compound 0.01 µM) 108% | viability, T/C [3] 50.6% | viability, T/C [4] 18.5% | viability, T/C (second compound 0.00949 µM, first compound 0.000316 µM) 105% | viability, T/C (second compound 0.00949 µM, first compound 0.001 µM) 108% | viability, T/C (second compound 0.00949 µM, first compound 0.00316 µM) 107% | viability, T/C (second compound 0.00949 µM, first compound 0.01 µM) 108% | viability, T/C [5] 48.5% | viability, T/C [6] 15.2% | viability, T/C (second compound 0.03 µM, first compound 0.000316 µM) 107% | viability, T/C (second compound 0.03 µM, first compound 0.001 µM) 90.8% | viability, T/C (second compound 0.03 µM, first compound 0.00316 µM) 108% | viability, T/C (second compound 0.03 µM, first compound 0.01 µM) 106% | viability, T/C [7] 38.1% | viability, T/C [8] 17.4% | viability, T/C (second compound 0.0949 µM, first compound 0.000316 µM) 98% | viability, T/C (second compound 0.0949 µM, first compound 0.001 µM) 117% | viability, T/C (second compound 0.0949 µM, first compound 0.00316 µM) 106% | viability, T/C (second compound 0.0949 µM, first compound 0.01 µM) 112% | viability, T/C [9] 38.4% | viability, T/C [10] 14.7% | viability, T/C (second compound 0.3 µM, first compound 0.000316 µM) 91.8% | viability, T/C (second compound 0.3 µM, first compound 0.001 µM) 107% | viability, T/C (second compound 0.3 µM, first compound 0.00316 µM) 112% | viability, T/C (second compound 0.3 µM, first compound 0.01 µM) 87.1% | viability, T/C [11] 41.6% | viability, T/C [12] 16.6%
28.1 nM: IC50 (second compound 0.000949 µM)

CC1(O)CCCC1n1c(=O)c(C(F)F)cc2cnc(NC3CCN(S(C)(=O)=O)CC3)nc21 (centres undefined) + CCn1c(-c2cccnc2C(C)OC)c2c3cc(ccc31)N1CCOC(CC(NC(=O)C(C(C)C)N(C)C(=O)C3(F)CCN(C(=O)C#CC(C)(C)N(C)C)CC3)C(=O)N3CCCC(N3)C(=O)OCC(C)(C)C2)C1
126 nM: IC50 (second compound 0.000949 µM)
81.7 nM: IC50 (second compound 0.03 µM)
107 nM: IC50 (second compound 0.3 µM)
155 nM: IC50 (second compound 0.003 µM) | IC50 (second compound 0.00949 µM)
106 nM: IC50 (second compound 0.0949 µM)
inactive: viability, T/C [1] 102% | viability, T/C [2] 57.9% | viability, T/C (second compound 0.000949 µM, first compound 0.316 µM) 21.9% | viability, T/C (second compound 0.000949 µM, first compound 1 µM) 24.9% | viability, T/C (second compound 0.000949 µM, first compound 3.16 µM) 20.7% | viability, T/C (second compound 0.000949 µM, first compound 10 µM) 3.78% | viability, T/C [3] 115% | viability, T/C [4] 67.3% | viability, T/C (second compound 0.003 µM, first compound 0.316 µM) 21.2% | viability, T/C (second compound 0.003 µM, first compound 1 µM) 22.8% | viability, T/C (second compound 0.003 µM, first compound 3.16 µM) 23.8% | viability, T/C (second compound 0.003 µM, first compound 10 µM) 4.11% | viability, T/C [5] 83.1% | viability, T/C [6] 68.5% | viability, T/C (second compound 0.00949 µM, first compound 0.316 µM) 19.7% | viability, T/C (second compound 0.00949 µM, first compound 1 µM) 18.9% | viability, T/C (second compound 0.00949 µM, first compound 3.16 µM) 23.4% | viability, T/C (second compound 0.00949 µM, first compound 10 µM) 2.04% | viability, T/C [7] 91.6% | viability, T/C [8] 41.3% | viability, T/C (second compound 0.03 µM, first compound 0.316 µM) 18.8% | viability, T/C (second compound 0.03 µM, first compound 1 µM) 21.4% | viability, T/C (second compound 0.03 µM, first compound 3.16 µM) 24.4% | viability, T/C (second compound 0.03 µM, first compound 10 µM) 1.8% | viability, T/C [9] 99.3% | viability, T/C [10] 51.8% | viability, T/C (second compound 0.0949 µM, first compound 0.316 µM) 16.9% | viability, T/C (second compound 0.0949 µM, first compound 1 µM) 21.4% | viability, T/C (second compound 0.0949 µM, first compound 3.16 µM) 26% | viability, T/C (second compound 0.0949 µM, first compound 10 µM) 1.18% | viability, T/C [11] 64.1% | viability, T/C [12] 52.2% | viability, T/C (second compound 0.3 µM, first compound 0.316 µM) 16% | viability, T/C (second compound 0.3 µM, first compound 1 µM) 23.2% | viability, T/C (second compound 0.3 µM, first compound 3.16 µM) 24.1% | viability, T/C (second compound 0.3 µM, first compound 10 µM) 1.49%

— PubChem BioAssay AID2060897 (Molecular Pharmacology Branch, DTP, NCI, 2025)
